≈ marks a conversion by molar mass, not a printed value. Calls of active or inactive are those of the source. The rule behind the calls is not given here.
Legend:
Staphylococcus aureus [1] = assay: Antibacterial activity against methicillin-resistant Staphylococcus aureus clinical isolate 202311772 assessed as bacterial growth inhibition measured after 20 hrs by broth dilution method; format: functional
Staphylococcus aureus [2] = assay: Antibacterial activity against methicillin-resistant Staphylococcus aureus ATCC 33591 assessed as bacterial growth inhibition measured after 20 hrs by broth dilution method; format: functional
[3] = system: Staphylococcus epidermidis; assay: Antibacterial activity against methicillin-resistant Staphylococcus epidermidis clinical isolate 202409139 assessed as bacterial growth inhibition measured after 20 hrs by broth dilution method; format: functional
[4] = system: Staphylococcus epidermidis; assay: Ratio of MBC to MIC against Staphylococcus epidermidis ATCC 51625; format: functional
[5] = system: Staphylococcus epidermidis; assay: Antibacterial activity against methicillin-resistant Staphylococcus epidermidis clinical isolate 202409454 assessed as bacterial growth inhibition measured after 20 hrs by broth dilution method; format: functional
Staphylococcus aureus [6] = assay: Ratio of MBC to MIC against methicillin-resistant Staphylococcus aureus clinical isolate 202405157; format: functional
Staphylococcus aureus [7] = assay: Ratio of MBC to MIC against methicillin-resistant Staphylococcus aureus ATCC 33591; format: functional
Enterococcus faecium [8] = assay: Ratio of MBC to MIC against vancomycin-resistant Enterococcus faecium ATCC 51559; format: functional
Enterococcus faecium [9] = assay: Antibacterial activity against vancomycin-resistant Enterococcus faecium clinical isolate 202308456 assessed as bacterial growth inhibition measured after 20 hrs by broth dilution method; format: functional
[10] = system: Staphylococcus epidermidis; assay: Antibacterial activity against Staphylococcus epidermidis ATCC 51625 assessed as bacterial growth inhibition measured after 20 hrs by broth dilution method; format: functional
[11] = system: Staphylococcus epidermidis; assay: Ratio of MBC to MIC against methicillin-resistant Staphylococcus epidermidis clinical isolate 202409139; format: functional
Staphylococcus aureus [12] = assay: Antibacterial activity against methicillin-resistant Staphylococcus aureus clinical isolate 202313160 assessed as bacterial growth inhibition measured after 20 hrs by broth dilution method; format: functional
Streptococcus pneumoniae [13] = assay: Antibacterial activity against penicillin-resistant Streptococcus pneumoniae ATCC 51916 assessed as bacterial growth inhibition measured after 20 hrs by broth dilution method; format: functional
Staphylococcus aureus [14] = assay: Antibacterial activity against methicillin-resistant Staphylococcus aureus ATCC 43300 assessed as bacterial growth inhibition measured after 20 hrs by broth dilution method; format: functional
Streptococcus pneumoniae [15] = assay: Antibacterial activity against penicillin-intermediate Streptococcus pneumoniae ATCC 49619 assessed as bacterial growth inhibition measured after 20 hrs by broth dilution method; format: functional
Streptococcus pneumoniae [16] = assay: Ratio of MBC to MIC against penicillin-intermediate Streptococcus pneumoniae ATCC 49619; format: functional
Enterococcus faecium [17] = assay: Ratio of MBC to MIC against vancomycin-resistant Enterococcus faecium clinical isolate 202308456; format: functional
Enterococcus faecium [18] = assay: Ratio of MBC to MIC against vancomycin-resistant Enterococcus faecium ATCC 700221; format: functional
[19] = system: Staphylococcus epidermidis; assay: Ratio of MBC to MIC against methicillin-resistant Staphylococcus epidermidis clinical isolate 202409454; format: functional
Staphylococcus aureus [20] = assay: Ratio of MBC to MIC against Staphylococcus aureus ATCC 43300; format: functional
Enterococcus faecium [21] = assay: Antibacterial activity against vancomycin-resistant Enterococcus faecium ATCC 51559 assessed as bacterial growth inhibition measured after 20 hrs by broth dilution method; format: functional
Staphylococcus aureus [22] = assay: Ratio of MBC to MIC against methicillin-resistant Staphylococcus aureus clinical isolate 202311772; format: functional
Staphylococcus aureus [23] = assay: Antibacterial activity against methicillin-resistant Staphylococcus aureus clinical isolate 202405157 assessed as bacterial growth inhibition measured after 20 hrs by broth dilution method; format: functional
Enterococcus faecium [24] = assay: Antibacterial activity against vancomycin-resistant Enterococcus faecium ATCC 700221 assessed as bacterial growth inhibition measured after 20 hrs by broth dilution method; format: functional
Staphylococcus aureus [25] = assay: Ratio of MBC to MIC against methicillin-resistant Staphylococcus aureus clinical isolate 202313160; format: functional
Streptococcus pneumoniae [26] = assay: Ratio of MBC to MIC against penicillin-resistant Streptococcus pneumoniae ATCC 51916; format: functional
Staphylococcus aureus [27] = assay: Drug resistance, ratio of MIC for Staphylococcus aureus ATCC 33591 after 9 days to MIC for methicillin-resistant Staphylococcus aureus ATCC 33591 after initial exposure; format: functional; details: time 9 day
Staphylococcus aureus [28] = assay: Antibacterial activity against methicillin-resistant Staphylococcus aureus ATCC 33591 infected in female C57 mouse systemic infection model assessed as reduction in bacterial load in heart at 40 mg/kg, iv administered twice daily and measured after 7 days; format: functional; details: time 7 day
Staphylococcus aureus [29] = assay: Bactericidal activity against methicillin-resistant Staphylococcus aureus ATCC 33591 at 4 to 8 times MIC measured within 24 hrs by time kill assay; format: functional, organism-based
Staphylococcus aureus [30] = assay: Antibacterial activity against methicillin-resistant Staphylococcus aureus ATCC 33591 infected in female C57 mouse systemic infection model assessed as reduction in bacterial load in kidney at 40 mg/kg, iv administered twice daily and measured after 7 days; format: functional; details: time 7 day
Staphylococcus aureus [31] = assay: Antibacterial activity against methicillin-resistant Staphylococcus aureus ATCC 33591 infected in female C57 mouse systemic infection model assessed as reduction in bacterial load in spleen at 40 mg/kg, iv administered twice daily and measured after 7 days; format: functional; details: time 7 day
Staphylococcus aureus [32] = assay: Drug resistance, ratio of MIC for Staphylococcus aureus ATCC 33591 after 8 days to MIC for methicillin-resistant Staphylococcus aureus ATCC 33591 after initial exposure; format: functional; details: time 8 day
Staphylococcus aureus [33] = assay: Antibacterial activity against methicillin-resistant Staphylococcus aureus ATCC 33591 infected in female C57 mouse systemic infection model assessed as effective dose; format: functional
Staphylococcus aureus [34] = assay: Antibacterial activity against methicillin-resistant Staphylococcus aureus ATCC 33591 infected in female C57 mouse systemic infection model assessed as reduction in bacterial load in liver at 40 mg/kg, iv administered twice daily and measured after 7 days; format: functional; details: time 7 day
Staphylococcus aureus [35] = assay: Induction of morphological changes in methicillin-resistant Staphylococcus aureus ATCC 33591 assessed as changes in cell surface at 1 time MIC measured after 4 hrs by SEM analysis; format: functional, organism-based
Staphylococcus aureus [36] = assay: Antibacterial activity against methicillin-resistant Staphylococcus aureus ATCC 33591 infected in female C57 mouse systemic infection model assessed as reduction in bacterial load in lung at 40 mg/kg, iv administered twice daily and measured after 7 days; format: functional; details: time 7 day
Staphylococcus aureus [37] = assay: Antibacterial activity against methicillin resistant Staphylococcus aureus ATCC 33591 assessed as post antibiotic effect at 2 times MIC by time kill assay; format: functional
Staphylococcus aureus [38] = assay: Antibacterial activity against Staphylococcus aureus ATCC 25923 assessed as reduction in GFP expression at 1 to 4 times MIC measured after 1 hr by fluorescence microscopy based analysis; format: functional, organism-based
Staphylococcus aureus [39] = assay: Antibacterial activity against methicillin resistant Staphylococcus aureus ATCC 33591 assessed as post antibiotic effect at 4 times MIC by time kill assay; format: functional

C=C[C@]1(C)C[C@@H](OC(=O)CSc2cc(=O)oc3ccc(F)cc23)[C@]2(C)[C@H](C)CC[C@]3(CCC(=O)[C@H]32)[C@@H](C)[C@@H]1O
MIC (Staphylococcus aureus [1]): 0.031 µg/mL (≈ 0.0557 µM) | MIC (Staphylococcus aureus [2]): 0.031 µg/mL (≈ 0.0557 µM) | MIC [3]: 0.063 µg/mL (≈ 0.113 µM) | Ratio [4]: 4 | MIC [5]: 0.125 µg/mL (≈ 0.225 µM) | Ratio (Staphylococcus aureus [6]): >4 | Ratio (Staphylococcus aureus [7]): >4 | Ratio (Enterococcus faecium [8]): 2 | MIC (Enterococcus faecium [9]): 0.031 µg/mL (≈ 0.0557 µM) | MIC [10]: 0.031 µg/mL (≈ 0.0557 µM) | Ratio [11]: 2 | MIC (Staphylococcus aureus [12]): 0.063 µg/mL (≈ 0.113 µM) | MIC (Streptococcus pneumoniae [13]): 0.125 µg/mL (≈ 0.225 µM) | MIC (Staphylococcus aureus [14]): 0.063 µg/mL (≈ 0.113 µM) | MIC (Streptococcus pneumoniae [15]): 0.063 µg/mL (≈ 0.113 µM) | Ratio (Streptococcus pneumoniae [16]): >4 | Ratio (Enterococcus faecium [17]): >4 | Ratio (Enterococcus faecium [18]): 4 | Ratio [19]: >4 | Ratio (Staphylococcus aureus [20]): 4 | MIC (Enterococcus faecium [21]): 0.063 µg/mL (≈ 0.113 µM) | Ratio (Staphylococcus aureus [22]): >4 | MIC (Staphylococcus aureus [23]): 0.063 µg/mL (≈ 0.113 µM) | MIC (Enterococcus faecium [24]): 0.031 µg/mL (≈ 0.0557 µM)

C=C[C@]1(C)C[C@@H](OC(=O)CO)[C@]2(C)[C@H](C)CC[C@]3(CCC(=O)[C@H]32)[C@@H](C)[C@@H]1O [PLEUROMULIN]
MIC (Staphylococcus aureus [1]): 0.25 µg/mL (≈ 0.66 µM) | MIC (Staphylococcus aureus [2]): 0.5 µg/mL (≈ 1.32 µM) | MIC [3]: 0.25 µg/mL (≈ 0.66 µM) | Ratio [4]: >4 | MIC [5]: 0.25 µg/mL (≈ 0.66 µM) | Ratio (Staphylococcus aureus [25]): >4 | Ratio (Staphylococcus aureus [7]): 4 | Ratio (Enterococcus faecium [8]): 2 | MIC (Enterococcus faecium [9]): 0.5 µg/mL (≈ 1.32 µM) | MIC [10]: 1 µg/mL (≈ 2.64 µM) | Ratio [11]: 4 | MIC (Staphylococcus aureus [12]): 0.5 µg/mL (≈ 1.32 µM) | MIC (Streptococcus pneumoniae [13]): 4 µg/mL (≈ 10.6 µM) | Ratio (Streptococcus pneumoniae [26]): 4 | MIC (Staphylococcus aureus [14]): 1 µg/mL (≈ 2.64 µM) | MIC (Streptococcus pneumoniae [15]): 2 µg/mL (≈ 5.28 µM) | Ratio (Streptococcus pneumoniae [16]): 2 | Ratio (Enterococcus faecium [17]): 2 | Ratio (Enterococcus faecium [18]): >4 | Ratio (Staphylococcus aureus [20]): 2 | MIC (Enterococcus faecium [21]): 2 µg/mL (≈ 5.28 µM) | Ratio (Staphylococcus aureus [22]): >4 | MIC (Staphylococcus aureus [23]): 0.5 µg/mL (≈ 1.32 µM) | MIC (Enterococcus faecium [24]): 0.5 µg/mL (≈ 1.32 µM)

C=C[C@]1(C)C[C@@H](OC(=O)CSc2cc(=O)oc3cc(Br)ccc23)[C@]2(C)[C@H](C)CC[C@]3(CCC(=O)[C@H]32)[C@@H](C)[C@@H]1O
MIC (Staphylococcus aureus [1]): 0.031 µg/mL (≈ 0.0502 µM) | MIC (Staphylococcus aureus [2]): 0.031 µg/mL (≈ 0.0502 µM) | MIC [3]: 0.125 µg/mL (≈ 0.202 µM) | Ratio [4]: 4 | MIC [5]: 0.125 µg/mL (≈ 0.202 µM) | Ratio (Staphylococcus aureus [25]): 4 | Ratio (Staphylococcus aureus [6]): 2 | Ratio (Enterococcus faecium [8]): 1 | MIC (Enterococcus faecium [9]): 0.063 µg/mL (≈ 0.102 µM) | MIC [10]: 0.031 µg/mL (≈ 0.0502 µM) | Ratio [11]: >4 | MIC (Staphylococcus aureus [12]): 0.125 µg/mL (≈ 0.202 µM) | MIC (Streptococcus pneumoniae [13]): 0.125 µg/mL (≈ 0.202 µM) | MIC (Staphylococcus aureus [14]): 0.063 µg/mL (≈ 0.102 µM) | MIC (Streptococcus pneumoniae [15]): 0.063 µg/mL (≈ 0.102 µM) | Ratio (Streptococcus pneumoniae [16]): >4 | Ratio (Enterococcus faecium [17]): 2 | Ratio (Enterococcus faecium [18]): 2 | Ratio (Staphylococcus aureus [20]): >4 | MIC (Enterococcus faecium [21]): 0.063 µg/mL (≈ 0.102 µM) | Ratio (Staphylococcus aureus [22]): 1 | MIC (Staphylococcus aureus [23]): 0.063 µg/mL (≈ 0.102 µM) | MIC (Enterococcus faecium [24]): 0.031 µg/mL (≈ 0.0502 µM)

C=C[C@]1(C)C[C@@H](OC(=O)CSCCN(CC)CC)[C@]2(C)[C@H](C)CC[C@]3(CCC(=O)[C@H]32)[C@@H](C)[C@@H]1O [TIAMULIN]
MIC (Staphylococcus aureus [1]): 2 µg/mL (≈ 4.05 µM) | fold change (FC) (Staphylococcus aureus [27]): 64 | MIC (Staphylococcus aureus [2]): 0.5 µg/mL (≈ 1.01 µM) | Activity (Staphylococcus aureus [28]): 2.05 log10CFU/g | Activity (Staphylococcus aureus [29]): Active | MIC [3]: 1 µg/mL (≈ 2.03 µM) | Activity (Staphylococcus aureus [30]): 1.39 log10CFU/g | Activity (Staphylococcus aureus [31]): 0.7 log10CFU/g | Ratio [4]: >4 | MIC [5]: 2 µg/mL (≈ 4.05 µM) | Ratio (Staphylococcus aureus [6]): 4 | Ratio (Staphylococcus aureus [7]): 4 | Ratio (Enterococcus faecium [8]): 2 | fold change (FC) (Staphylococcus aureus [32]): 4 | MIC (Enterococcus faecium [9]): 2 µg/mL (≈ 4.05 µM) | ED50 (Staphylococcus aureus [33]): 28.9 mg/kg | Activity (Staphylococcus aureus [34]): 0.28 log10CFU/g | Activity (Staphylococcus aureus [35]): inactive | Activity (Staphylococcus aureus [36]): 1.23 log10CFU/g | PAE (Staphylococcus aureus [37]): 1.07 h | MIC [10]: 0.125 µg/mL (≈ 0.253 µM) | MIC (Staphylococcus aureus [12]): 1 µg/mL (≈ 2.03 µM) | MIC (Streptococcus pneumoniae [13]): 0.125 µg/mL (≈ 0.253 µM) | MIC (Staphylococcus aureus [14]): 0.5 µg/mL (≈ 1.01 µM) | MIC (Streptococcus pneumoniae [15]): 0.25 µg/mL (≈ 0.506 µM) | Ratio (Streptococcus pneumoniae [16]): >4 | Ratio (Enterococcus faecium [17]): 4 | Ratio (Enterococcus faecium [18]): >4 | Ratio (Staphylococcus aureus [20]): >4 | Activity (Staphylococcus aureus [38]): Active | MIC (Enterococcus faecium [21]): 0.5 µg/mL (≈ 1.01 µM) | Ratio (Staphylococcus aureus [22]): 4 | MIC (Staphylococcus aureus [23]): 2 µg/mL (≈ 4.05 µM) | PAE (Staphylococcus aureus [39]): 1.19 h | MIC (Enterococcus faecium [24]): 0.125 µg/mL (≈ 0.253 µM)
